{"source": "patent US20240268385A1", "about": "“PEST CONTROL COMPOSITION” (DAIKIN INDUSTRIES, LTD., priority 2021, published 2024)", "key": {"[1]": {"test_system": "Bemisia tabaci (Adult Insect)", "experiment": "whole plant or invertebrate", "details": "in Brassica oleracea, 48 h", "method": "(§1) 9 parts by mass of a subagent of a formulation (xylene:DMF:Solpol 3005X (Toho Chemical Industry Co., Ltd.)=4:4:1) was mixed with 1 part by mass of dexmedetomidine (Wako) to prepare a 10% emulsion. A diluted solution of the 10% emulsion with a predetermined concentration was prepared by using a spreading agent, Grameen S (Toyo Green Co., Ltd.), diluted 10000-fold with water. Sample crops were individually sprayed with a sufficient amount of the diluted chemical solution by using a spray gun.\n(§2) Test Method for Bemisia tabaci (Adult) and Frankliniella Occidentalis (First-Instar Larva)\n(§3) After the sample crops were sprayed with the chemical solution, they were air-dried, and then the leaves were cut and stored in cups. While test insects were released, the number of insects released was counted, and the cups were covered with a lid. The mortality rate was calculated from the number of surviving insects after 2 days for Bemisia tabaci and after 5 days for Frankliniella occidentalis. Their corrected mortality rate was calculated from the following formula:\n(§4) Corrected mortality rate (%)=[(survival rate of untreated group−survival rate of treated group)/survival rate of untreated group]×100"}, "[2]": {"test_system": "Frankliniella occidentalis (First-instar Larva)", "experiment": "whole plant or invertebrate", "details": "in Brassica oleracea, 120 h", "method": "as §1, §2, §3, §4"}, "[3]": {"test_system": "Nephotettix cincticeps (Three-instar Larva)", "experiment": "whole plant or invertebrate", "details": "in Oryza sativa, 144 h", "method": "as §1\n(§5) Test Method for Nilaparvata lugens (Third-Instar Larva) and Nephotettix cincticeps (Third-Instar Larvae)\n(§6) After the sample crops were sprayed with the chemical solution, they were air-dried, and 10 test insects were released. To prevent the escape of the test insects, plants were covered with cups and nylon gauze. The mortality rate was calculated from the number of surviving insects after 6 days, and the corrected mortality rate was calculated from the following formula:\nas §4"}, "[4]": {"test_system": "Nilaparvata lugens (Three-instar Larva)", "experiment": "whole plant or invertebrate", "details": "in Oryza sativa, 144 h", "method": "as §1, §5, §6, §4"}, "blast disease pathogens": {"test_system": "blast disease pathogens", "details": "500 ppm spray, rice seedlings at 2.5-leaf stage, 8 days in humid room", "method": "as §1\nTest Method for Blast Disease Pathogen\nSeedlings at the 2.5-leaf stage were sprayed with the chemical solution, and placed in a humid room for 8 days with blast disease pathogens, followed by measuring the area of lesions. The preventive value was calculated from the ratio to the untreated group according to the following formula (N):\n(§7) Preventive value=100−(damage in treated group/damage in untreated group)×100 (N)"}, "[5]": {"test_system": "brown blotch disease pathogens", "details": "500 ppm spray, cucumbers at 2-leaf stage, 8 days in humid room", "method": "as §1, §7\nTest Method for Brown Blotch Disease Pathogen\nCucumbers at the 2-leaf stage were sprayed with the chemical solution and inoculated with a spray of a spore suspension of brown blotch disease pathogens, and then placed in a humid room for 8 days. The area of lesions on leaves was measured, and the preventive value was calculated according to formula (N)."}, "sheath blight fungi": {"test_system": "sheath blight fungi", "details": "500 ppm spray, rice plants at 5-leaf stage, 6 days in humid room"}, "[6]": {"test_system": "phytophthora disease pathogens", "details": "in vivo"}, "[7]": {"details": "read-out: Insect Mortality Rate"}, "[8]": {"details": "read-out: Insect Mortality Rate (Corrected)"}}, "note": "Where two headings read alike, the source gives them in different places.", "data": [{"smiles": "Cc1cccc([C@H](C)c2cnc[nH]2)c1C", "note": "[Chemical Agent, dexmedetomidine]", "values": [{"measurement": "mortality at 100 ppm", "setting": "[1]; [7]", "result": 100, "unit": "%"}, {"measurement": "mortality at 500 ppm", "setting": "[1]; [7]", "result": 100, "unit": "%"}, {"measurement": "mortality at 100 ppm", "setting": "[1]; [8]", "result": 100, "unit": "%"}, {"measurement": "mortality at 500 ppm", "setting": "[1]; [8]", "result": 100, "unit": "%"}, {"measurement": "mortality at 100 ppm", "setting": "[2]; [7]", "result": 100, "unit": "%"}, {"measurement": "mortality at 500 ppm", "setting": "[2]; [7]", "result": 100, "unit": "%"}, {"measurement": "mortality at 100 ppm", "setting": "[2]; [8]", "result": 100, "unit": "%"}, {"measurement": "mortality at 500 ppm", "setting": "[2]; [8]", "result": 100, "unit": "%"}, {"measurement": "mortality at 100 ppm", "setting": "[3]; [7]", "result": 100, "unit": "%"}, {"measurement": "mortality at 500 ppm", "setting": "[3]; [7]", "result": 100, "unit": "%"}, {"measurement": "mortality at 100 ppm", "setting": "[3]; [8]", "result": 100, "unit": "%"}, {"measurement": "mortality at 500 ppm", "setting": "[3]; [8]", "result": 100, "unit": "%"}, {"measurement": "mortality at 100 ppm", "setting": "[4]; [7]", "result": 100, "unit": "%"}, {"measurement": "mortality at 500 ppm", "setting": "[4]; [7]", "result": 100, "unit": "%"}, {"measurement": "mortality at 100 ppm", "setting": "[4]; [8]", "result": 100, "unit": "%"}, {"measurement": "mortality at 500 ppm", "setting": "[4]; [8]", "result": 100, "unit": "%"}, {"measurement": "Blast Disease Expansion Area Percentage", "setting": "blast disease pathogens", "result": 0, "unit": "%"}, {"measurement": "Blast Disease Preventive Value", "setting": "blast disease pathogens", "result": 100}, {"measurement": "Brown Blotch Disease Expansion Area", "setting": "[5]", "result": 2, "unit": "%"}, {"measurement": "Brown Blotch Disease Preventive Value", "setting": "[5]", "result": 86}, {"measurement": "Sheath Blight Disease Lesion Elongation", "setting": "sheath blight fungi", "result": 3, "unit": "mm"}, {"measurement": "Sheath Blight Disease Preventive Value", "setting": "sheath blight fungi", "result": 98}, {"measurement": "Phytophthora Expansion Area", "setting": "[6]", "result": 15, "unit": "%"}, {"measurement": "Phytophthora Preventive Value", "setting": "[6]", "result": 84}]}]}
